In US9243255B2, “Bacterial strains, plasmids, method of producing bacterial strains capable of chemolithotrophic arsenites oxidation and uses thereof” (UNIWERSYTET WARSZAWSKI, priority 2012, dated 2016):

Columns and labels:
[1] = system: Brevundimonas sp. ARS4 (derivative of Brevundimonas sp. OS24R harbouring the plasmid pARS1); assay: MIC for As(III); type: cell-based; conditions: derivative with pARS1; LB medium, 48 h, 30° C.
Method: (§1) FIG. 8. […] In order to compare the MICs for As(III), cultures were carried out in LB medium, with various concentrations of sodium arsenite (up to 20 mM). After 48 h of cultivation at 30° C., optical density of the cultures (OD600nm measurements of absorbance at 600 nm) was monitored.
(§2) In all the conjugations, transconjugants harbouring the plasmid pARS1 were obtained. To confirm that the newly constructed strains, harbouring the plasmid pARS1, have an increased resistance to arsenic, analysis of MIC—minimal concentration of As(III), inhibiting the growth of the following strains: Agrobacterium tumefaciens ARS3 (derivative of A. tumefaciens LBA288 harbouring the plasmid pARS1), Brevundimonas sp. ARS4 (derivative of Brevundimonas sp. sp. OS24R harbouring the plasmid pARS1), P. aminophilus ARS5 (derivative of P. aminophilus JCM7686 harbouring the plasmid pARS1) was carried out. Wild-type strains were used as the control. Growth experiment and MIC analysis for As(III) was carried out in LB medium, with various concentrations of sodium arsenite (up to 20 mM). After 48 h of cultivation at 30° C., optical density of cultures at OD600nm was monitored. […] MIC for As(III) for A. tumefaciens LBA288 strain was 1 mM, while for its derivative, comprising the plasmid pARS1, 20 mM; for P. aminophilus JCM7686R strain 5 mM, while for its derivative, containing the plasmid pARS1, 20 mM. In turn Brevundimonas sp. OS24R could tolerate the maximum of 10 mM of As(III), and its derivative harbouring the plasmid pARS1 was resistant to 20 mM of As(III). The conducted analyses allowed to confirm that the derivative of the plasmid pSinA, comprising the ars module (sequence from 43229 to 50772) can be used for constructing strains with increased resistance to arsenic.

[2] = system: P. aminophilus ARS5 (derivative of P. aminophilus JCM7686 harbouring the plasmid pARS1); assay: MIC for As(III); type: cell-based; conditions: Paracoccus aminophilus, derivative with pARS1, LB medium, 48 h, 30° C.
Method: as §1, §2

[3] = system: Agrobacterium tumefaciens ARS3 (derivative of A. tumefaciens LBA288 harbouring the plasmid pARS1); assay: MIC for As(III); type: cell-based; conditions: derivative with pARS1, LB medium, 48 h, 30° C.
Method: as §1, §2

[4] = system: Stenotrophomonas sp. LM24R; assay: Sodium arsenite growth inhibition; type: cell-based
[5] = system: Agrobacterium tumefaciens LBA288; assay: As(III) (sodium arsenite) growth inhibition / MIC; type: cell-based
Method: as §1, §2

[6] = system: Paracoccus aminophilus JCM7686; assay: As(III) (sodium arsenite) growth inhibition / MIC; type: cell-based
Method: as §1, §2

Brevundimonas sp. OS24R = assay: As(III) (sodium arsenite) growth inhibition / MIC; type: cell-based
Method: as §1, §2

Sinorhizobium sp. M14 = assay: Resistance to As(III); type: cell-based
A. tumefaciens D10 = assay: Resistance to As(III); type: cell-based, Agrobacterium tumefaciens; conditions: A. tumefaciens D10 with pSinA
[7] = system: Paracoccus alcaliphilus JCM7364R; assay: Sodium arsenite growth inhibition; type: cell-based; conditions: P. alcaliphilus JCM7364R
Pseudomonas sp. OS29R = assay: Resistance to As(III); type: cell-based; conditions: in words
[8] = system: Paracoccus aminovorans JCM7685; assay: Sodium arsenite growth inhibition; type: cell-based; conditions: P. aminovorans JCM7685

## O=[As]O [sodium arsenite]
[1]
  As(III) concentration the strain is resistant to: 20 mM
[2]
  MIC: 20 mM
[3]
  MIC: 20 mM
[4]
  concentration of sodium arsenite that inhibits growth: 1 mM
[5]; A. tumefaciens LBA288
  concentration of sodium arsenite that inhibits growth: 1 mM
[5]; Agrobacterium tumefaciens, LBA288, LB medium, 48 h, 30° C., OD600nm
  MIC: 1 mM
[6]; P. aminophilus JCM7686
  concentration of sodium arsenite that inhibits growth: 5 mM
[6]; Paracoccus aminophilus, JCM7686, 48 h, read-out: MIC for As(III)
  MIC: 5 mM
Brevundimonas sp. OS24R; Brevundimonas sp. OS24R
  concentration of sodium arsenite that inhibits growth: 10 mM
Brevundimonas sp. OS24R; Brevundimonas sp. OS24R, in words
  resistance to As (III): resistant
Brevundimonas sp. OS24R; LB medium, 48 h, 30° C., OD600nm
  maximum of As(III) tolerated: ≤ 10 mM
Sinorhizobium sp. M14
  resistant to As (III) (up to): up to 20 mM
A. tumefaciens D10
  resistant to As (III) (up to): up to 15 mM
[7]
  concentration of sodium arsenite that inhibits growth: 1 mM
Pseudomonas sp. OS29R
  resistance to As (III): resistant
[8]
  concentration of sodium arsenite that inhibits growth: 1 mM
